Read-outs that look alike come from different tables or passages of the source.
Experiments:
[1] = Flow Induced Dispersion Analysis (FIDA) equilibrium binding constant with βCD; conditions: complex with βCD, 67 mM phosphate buffer pH 7.4, 25° C., ±standard deviation
Protocol: The sample volume introduced into the capillary in these experiments corresponds to 9 nL. […] The peak shape may be fitted to a Gaussian peak shape (described in the examples); in this way the temporal peak variance σ^2 can be estimated.
[formula] where σA^2 is the observed variance obtained from a Gaussian fit in the absence of an interacting analyte and σAL^2 is the variance corresponding to the complex AL. […] Corrections due to sample injection and detector variances may be introduced, but as they are small and constant under the present conditions they are neglected.
[formula] where [L] is the concentration of free analyte. […]
In a series of experiments the concentration of βCD in the background electrolyte was varied and the peak variances determined.
βCD, α-naphthol and naproxen was obtained form Sigma-Aldrich. […] The amount of water present in βCD was determined by gravimetric analysis upon drying to constant weight in vacuo at ˜60° C. […]

[2] = literature data (18, 19); cited from earlier work
[3] = ACE; complex with βCD; 67 mM phosphate buffer pH 7.4; ±standard deviation
Protocol: Flow induced dispersion and capillary electrophoresis experiments were carried out using an Agilent ^3DCE instrument (Agilent Technologies, Waldbronn, Germany). Uncoated fused silica capillaries of 48.5 cm total length (50 μm i.d., 360 μm o.d.) and 40.5 cm to the detection window were obtained from Polymicro Technologies (Phoenix, Ariz., USA).
New capillaries were conditioned with 1 M NaOH (45 min), Milli-Q water (30 min) and 67 mM phosphate buffer pH 7.4 (30 min). Before a series of experiments the capillary was refreshed by flushing with 1 M NaOH (10 min) and 67 mM phosphate buffer pH 7.4 (10 min). In FIDA, the capillary was preconditioned by flushing the capillary with 0.1 M NaOH (2 min) and run buffer (2 min). The sample was injected by applying a pressure of 50 mbar for 5 sec. Subsequently a pressure of 50 mbar was applied across the capillary to force the sample through it. Finally the sample was detected by UV absorbance at 230 nm. Samples were run in triplicate. The peak variance was obtained by fitting the UV signal to a Gaussian peak shape. The Gaussian in addition to peak variance and peak appearance time the function incorporates a constant A to account for signal height and a constant y0 to account for a possible detector offset.

[4] = Diffusion coefficients from FIDA peak variance (eq 2, capillary radius 25 μm); format: physicochemical; conditions: 67 mM phosphate buffer pH 7.4, 25° C., calculated using eq 2, capillary radius 25 μm; for Diffusion coefficient of the complex DAL: complex with βCD
Text: According to Taylor-Aris theory the temporal peak variance is related to ligand (affinity probe) diffusivity (13,14). Under optimal conditions for a pressure driven flow in a cylindrical capillary the peak variance is inversely proportional to the diffusion coefficient, D, according to (15): [formula] where Rc is the radius of the capillary tube, and tR is the peak appearance time. In the presence of the analyte βCD, the observed variance can be attributed to α-naphthol and the complex between α-naphthol and βCD. We shall assume that the observed variance is a weighted average depending on the fraction of free α-naphthol, x. This assumption is valid when the complexation kinetics is fast compared to the timescale of the experiment (16). […] The experimental points are found to be well described by the model and the estimated binding constants are in good agreement with literature data considering that other methods and different conditions were used (table 1). In table 1, the diffusion coefficients of the analytes and complexes calculated using eq 2 and assuming a capillary radius of 25 μm are also listed. […] Samples were run in triplicate.

[5] = complex with βCD; literature data (17); cited from earlier work

Equilibrium binding constant K [3] | SMILES | Equilibrium binding constant K [1] | Diffusion coefficient of the free analyte DA [2] | Diffusion coefficient of the free analyte DA [4] | Diffusion coefficient of the complex DAL [4] | Equilibrium binding constant K [5]
650 (±28)^f M^−1 | COc1ccc2cc([C@H](C)C(=O)O)ccc2c1 [Naproxen, naproxen] | 1050 (±185) M^−1 | 5.8 · 10^−6g cm^2 s^−1 | 5.6 · 10^−6 cm^2 s^−1 | 2.8 · 10^−6 cm^2 s^−1 | –
– | Oc1cccc2ccccc12 [α-Naphthol, α-naphthol] | 2400 (±240) M^−1 | 9.2 · 10^−6e cm^2 s^−1 | 9.3 · 10^−6 cm^2 s^−1 | 3.3 · 10^−6 cm^2 s^−1 | 1250^d M^−1

From US9310359B2, “Analyte quantification using flow induced dispersion analysis” (FIDA-TECH APS, priority 2010, dated 2016)
